# Source: ChEMBL document CHEMBL1201862, “PubChem BioAssay data set” (2004)
# Activity calls are given as the source filed them.
# What was measured:
# [1] = target: E3 ubiquitin-protein ligase Mdm2 (Homo sapiens, UniProt Q00987); assay: enhancers of MDM2-luciferase reporter signal, concentration-effect titration, project on inhibitors of MDM2 ubiquitin ligase, cellular assay, luminescent readout, 384-well plate format (AID 1394); type: functional;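 further: MDM2 E3 inhibitors raise luminescence so EC50 is for signal enhancement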
# [2] = target: T1, Carboxy-terminal domain RNA polymerase II polypeptide A small phosphatase 1 (Homo sapiens, UniProt Q9GZU7); assay: inhibitors of CTDSP1, concentration-response testing, biochemical assay, absorbance-based, actives from ultra-high-throughput screening (AID 540297); type: functional
# T1 sequence (Q9GZU7 whole entry): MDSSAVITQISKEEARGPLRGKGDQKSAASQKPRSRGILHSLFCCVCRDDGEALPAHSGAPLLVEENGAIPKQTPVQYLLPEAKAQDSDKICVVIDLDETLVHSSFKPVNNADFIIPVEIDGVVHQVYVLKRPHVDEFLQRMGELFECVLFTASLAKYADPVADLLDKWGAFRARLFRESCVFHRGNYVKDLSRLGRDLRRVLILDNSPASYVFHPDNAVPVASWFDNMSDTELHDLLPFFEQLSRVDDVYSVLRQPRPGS
# Coagulation factor XII = target: T2, Coagulation factor XII (Homo sapiens, UniProt P00748); type: functional;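 further: activated factor XIIa alpha cleaving a fluorogenic AMC peptide substrate; inhibitor potency from loss of enzyme activity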
# T2 sequence (P00748 whole entry): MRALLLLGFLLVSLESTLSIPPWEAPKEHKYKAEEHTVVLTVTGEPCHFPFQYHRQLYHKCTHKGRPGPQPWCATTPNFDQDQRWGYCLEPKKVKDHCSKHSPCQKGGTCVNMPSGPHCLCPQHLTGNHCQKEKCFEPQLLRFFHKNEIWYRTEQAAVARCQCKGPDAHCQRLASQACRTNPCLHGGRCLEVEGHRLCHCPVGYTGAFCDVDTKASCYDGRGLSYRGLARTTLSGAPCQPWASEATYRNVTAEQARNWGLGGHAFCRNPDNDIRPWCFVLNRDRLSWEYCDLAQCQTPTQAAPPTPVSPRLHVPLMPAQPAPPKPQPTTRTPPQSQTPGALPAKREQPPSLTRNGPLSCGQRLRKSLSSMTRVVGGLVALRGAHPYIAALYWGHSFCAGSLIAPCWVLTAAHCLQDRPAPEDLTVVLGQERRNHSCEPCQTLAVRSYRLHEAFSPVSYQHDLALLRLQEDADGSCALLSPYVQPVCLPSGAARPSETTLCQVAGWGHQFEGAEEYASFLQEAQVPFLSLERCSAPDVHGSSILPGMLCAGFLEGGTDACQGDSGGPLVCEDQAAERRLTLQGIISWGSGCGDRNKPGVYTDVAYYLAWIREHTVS
# [3] = target: Mitogen-activated protein kinase 10 (Homo sapiens, UniProt P53779); assay: Dose response biochemical screening assay for inhibitors of c-Jun N-Terminal Kinase 3 (JNK3). [Related pubchem assays: 746 ]
# Nonstructural protein 1 = Nonstructural protein 1 (Influenza A virus, UniProt Q194T2); type: functional, Influenza A virus (A/California/07/2009(H1N1))
# [4] = target: T3, Mannose-6-phosphate isomerase (Homo sapiens, UniProt P34949); assay: human PMI inhibitors, high substrate, primary screen, biochemical, fluorescence intensity, high mannose 6-phosphate (AID 1220)
# T3 sequence (P34949 whole entry): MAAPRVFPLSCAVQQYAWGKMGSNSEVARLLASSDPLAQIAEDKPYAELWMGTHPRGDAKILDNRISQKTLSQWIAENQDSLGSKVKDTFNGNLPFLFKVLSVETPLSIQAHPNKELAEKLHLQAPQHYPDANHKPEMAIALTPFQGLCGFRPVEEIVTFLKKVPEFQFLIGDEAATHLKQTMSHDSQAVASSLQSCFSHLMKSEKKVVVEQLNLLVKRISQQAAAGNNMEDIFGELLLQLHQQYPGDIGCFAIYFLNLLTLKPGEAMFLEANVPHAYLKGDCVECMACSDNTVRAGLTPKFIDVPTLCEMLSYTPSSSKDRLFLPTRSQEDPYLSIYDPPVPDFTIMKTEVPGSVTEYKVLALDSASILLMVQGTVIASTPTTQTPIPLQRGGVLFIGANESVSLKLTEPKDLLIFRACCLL
# SUMO-activating enzyme [5] = target: T4, SUMO-activating enzyme (Homo sapiens, UniProt Q9UBT2); assay: SUMOylation inhibitor hit validation, confirmation, SUMOylation inhibitor project, biochemical, AlphaScreen (AID 2018); type: functional
# SUMO-activating enzyme [6] = target: T4, SUMO-activating enzyme; assay: inhibitors of in vitro SUMOylation cascade, primary screen, biochemical, HTRF, uHTS (AID 2006); type: protein-complex assay
# [7] = target: Bifunctional protein GlmU (Mycobacterium tuberculosis, UniProt P9WMN3); assay: Inhibitors of Mycobacterial Glucosamine-1-phosphate acetyl transferase (GlmU). Secondary screen.; parameters: species or system Mycobacterium tuberculosis H37Rv
# Paired box protein Pax-8 = Paired box protein Pax-8 (Homo sapiens, UniProt Q06710); assay: inhibitors of PAX8-driven TPO luciferase reporter, dose response, RMG-I cells, cherry-pick (AID 687027); type: functional, cell-based;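 further: luciferase reporter driven by Pax8 target thyroperoxidase promoter measured by SteadyGlo luminescence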
# [8] = ZM109 Env clade C HIV-1 fusion inhibitors, dose response, HeLa effector, CEM target cells, luciferase, cherry-pick (AID 652058); type: functional, cell-based
# [9] = off-target signal loss in HeLa-CEM21 co-culture – HeLa F-luc CTL cells, cherry-picked, counter-screen for HIV-1 Env fusion inhibitor project, dose response (AID 652040); type: functional, cell-based;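 further: potency for signal decrease marking cytotoxic or nonspecific inhibition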
# [10] = HEK293 cell cytotoxicity, dose response, cytotoxicity control, plate reader, cherry-picked samples (AID 743446); type: functional, cell-based
# Jurkat = assay: antigen receptor-induced NF-kB inhibitors, dose response, Jurkat, luciferase reporter, luminescence, B- and T-cell (AID 489004); type: functional, cell-based; details: Homo sapiens;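 further: NF-kB luciferase reporter Jurkat cells stimulated with PMA plus ionomycin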
# [11] = MC4R antagonists, dose response, counter-screen for LGR2 antagonist project, cell-based, plate reader, cherry pick (AID 743444); type: functional;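 further: transfected HEK 293 cells stimulated with alpha-MSH peptide; potency of inhibitors of the alpha-MSH evoked signal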
# [12] = inhibitors of clade B AD8 Env fusion, dose response, cell-based, cherry-pick (AID 652062); type: functional;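 further: luciferase signal from cell-cell fusion driven by HIV-1 clade B AD8 Env; potency is for inhibitors of fusion seen as a drop in luminescence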
# [13] = cytotoxicity in HEK-293T NF-kB-Luc cells, dose response, cytotoxicity control for B/T-cell NF-kB inhibitor project, cell-based, uHTS hits (AID 489019); type: functional;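 further: IC50 reflects cytotoxicity as loss of cell viability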
# [14] = target: T5, Heat shock factor protein 1 (Mus musculus, UniProt P38532); assay: inhibition of MG132-induced HSE-luciferase signal, confirmation, cell-based, NIH3T3, luminescence, dose retest (AID 2382); type: functional;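 further: NIH3T3 fibroblasts with HSF1-driven luciferase reporter stressed by proteasome inhibitor MG132; luminescence from HSF1-driven luciferase expression after 8 hours of MG132 stress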
# T5 sequence (P38532 whole entry): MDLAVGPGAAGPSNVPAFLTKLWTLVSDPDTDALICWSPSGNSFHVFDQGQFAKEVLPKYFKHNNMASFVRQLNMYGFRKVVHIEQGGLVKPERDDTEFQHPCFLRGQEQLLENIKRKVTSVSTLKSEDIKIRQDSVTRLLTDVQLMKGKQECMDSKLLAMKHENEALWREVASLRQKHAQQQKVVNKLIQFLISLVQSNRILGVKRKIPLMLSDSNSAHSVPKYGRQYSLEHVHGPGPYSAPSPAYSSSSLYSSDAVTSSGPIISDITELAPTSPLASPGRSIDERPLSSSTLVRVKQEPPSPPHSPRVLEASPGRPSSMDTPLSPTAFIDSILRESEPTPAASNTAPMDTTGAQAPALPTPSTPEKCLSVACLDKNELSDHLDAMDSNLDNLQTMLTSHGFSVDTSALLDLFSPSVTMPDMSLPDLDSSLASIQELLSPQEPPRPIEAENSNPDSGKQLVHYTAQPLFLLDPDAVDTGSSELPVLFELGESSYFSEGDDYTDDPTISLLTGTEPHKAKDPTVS
# [15] = inhibitors of HIV Env-driven cell fusion, dose response, cherry-pick (AID 652057); type: functional, cell-based
# [16] = target: Heat shock protein HSP 90-alpha (Homo sapiens, UniProt P07900); assay: Luminescence-based dose response biochemical high throughput screening assay for inhibitors of the Heat Shock Protein 90 (HSP90). [Related pubchem assays: 1831 (Summary AID.), 1846 (Confirmation screen.), 1789 (Primary screen.)]
# [17] = LGR2 antagonists, dose response, cell-based, HEK293, CRE-luciferase reporter, cherry pick, set 2 (AID 743343); type: functional;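 further: transfected cells were stimulated with diluted bursicon conditioned medium after compound addition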
# [18] = A549 cell cytotoxicity, dose response, cytotoxicity control, plate reader, cherry-pick, antagonist series (AID 743412); type: functional, cell-based
# [19] = target: T6, Tyrosine-protein phosphatase non-receptor type 7 (Homo sapiens, UniProt P35236); assay: inhibitors of human HePTP phosphatase, […], biochemical, absorbance, leukemia target (AID 521); type: functional
# T6 sequence (P35236 whole entry): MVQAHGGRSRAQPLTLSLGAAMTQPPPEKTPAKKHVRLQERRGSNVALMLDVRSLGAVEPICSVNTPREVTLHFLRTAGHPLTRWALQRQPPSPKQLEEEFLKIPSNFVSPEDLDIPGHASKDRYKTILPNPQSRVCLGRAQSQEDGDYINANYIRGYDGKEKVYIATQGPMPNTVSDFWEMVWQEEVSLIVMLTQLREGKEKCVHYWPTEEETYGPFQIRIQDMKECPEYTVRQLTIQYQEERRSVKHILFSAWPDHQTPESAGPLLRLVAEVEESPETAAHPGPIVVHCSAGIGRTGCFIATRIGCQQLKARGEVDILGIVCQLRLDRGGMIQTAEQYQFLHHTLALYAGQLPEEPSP
# T4 sequence (Q9UBE0 whole entry): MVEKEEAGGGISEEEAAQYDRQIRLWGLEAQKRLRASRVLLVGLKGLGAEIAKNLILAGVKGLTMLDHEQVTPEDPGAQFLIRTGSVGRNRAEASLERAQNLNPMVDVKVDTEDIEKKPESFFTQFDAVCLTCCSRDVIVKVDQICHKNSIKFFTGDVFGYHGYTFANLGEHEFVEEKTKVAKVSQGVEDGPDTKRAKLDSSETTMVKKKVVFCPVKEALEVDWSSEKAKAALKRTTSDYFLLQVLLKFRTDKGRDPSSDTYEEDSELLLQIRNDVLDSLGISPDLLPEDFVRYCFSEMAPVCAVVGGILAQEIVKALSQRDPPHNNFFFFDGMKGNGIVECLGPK
# T4 sequence (Q9UBT2 whole entry): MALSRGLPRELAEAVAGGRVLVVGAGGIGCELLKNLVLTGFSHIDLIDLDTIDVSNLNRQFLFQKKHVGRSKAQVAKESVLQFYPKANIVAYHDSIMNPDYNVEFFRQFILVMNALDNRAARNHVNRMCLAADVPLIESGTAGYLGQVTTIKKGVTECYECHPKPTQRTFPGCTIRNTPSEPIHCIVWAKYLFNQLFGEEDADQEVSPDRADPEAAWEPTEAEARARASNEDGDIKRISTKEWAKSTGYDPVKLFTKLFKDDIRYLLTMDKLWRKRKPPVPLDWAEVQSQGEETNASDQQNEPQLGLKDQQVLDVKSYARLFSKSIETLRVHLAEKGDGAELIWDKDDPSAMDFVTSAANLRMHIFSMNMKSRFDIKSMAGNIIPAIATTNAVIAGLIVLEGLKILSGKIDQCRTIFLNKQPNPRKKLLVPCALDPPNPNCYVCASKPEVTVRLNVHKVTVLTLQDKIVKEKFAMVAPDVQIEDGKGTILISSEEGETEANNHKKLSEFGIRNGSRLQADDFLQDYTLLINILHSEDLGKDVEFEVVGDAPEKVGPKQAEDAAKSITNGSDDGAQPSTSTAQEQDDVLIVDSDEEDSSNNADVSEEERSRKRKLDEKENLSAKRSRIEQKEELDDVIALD
# Nonstructural protein 1, sequence (Q194T2 whole entry): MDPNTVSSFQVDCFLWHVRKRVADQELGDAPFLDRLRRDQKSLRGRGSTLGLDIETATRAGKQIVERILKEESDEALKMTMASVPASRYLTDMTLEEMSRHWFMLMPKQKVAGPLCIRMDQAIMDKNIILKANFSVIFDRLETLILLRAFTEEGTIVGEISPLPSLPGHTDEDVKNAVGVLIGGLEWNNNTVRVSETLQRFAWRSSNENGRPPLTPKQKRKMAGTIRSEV
# Mitogen-activated protein kinase 10, sequence (P53779 whole entry): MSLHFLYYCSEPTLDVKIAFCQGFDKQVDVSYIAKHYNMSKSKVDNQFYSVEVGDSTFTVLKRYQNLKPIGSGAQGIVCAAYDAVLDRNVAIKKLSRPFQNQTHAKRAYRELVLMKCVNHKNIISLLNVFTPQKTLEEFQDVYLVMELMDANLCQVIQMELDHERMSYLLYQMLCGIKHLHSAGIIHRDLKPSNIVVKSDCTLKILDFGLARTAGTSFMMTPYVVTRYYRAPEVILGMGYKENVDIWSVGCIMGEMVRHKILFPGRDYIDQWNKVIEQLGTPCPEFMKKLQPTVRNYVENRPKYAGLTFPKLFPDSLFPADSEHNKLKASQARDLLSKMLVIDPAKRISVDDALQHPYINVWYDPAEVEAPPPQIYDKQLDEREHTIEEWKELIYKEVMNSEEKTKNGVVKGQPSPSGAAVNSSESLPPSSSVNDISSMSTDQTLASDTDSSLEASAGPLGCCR
# Paired box protein Pax-8, sequence (Q06710 whole entry, the tested form may be a part): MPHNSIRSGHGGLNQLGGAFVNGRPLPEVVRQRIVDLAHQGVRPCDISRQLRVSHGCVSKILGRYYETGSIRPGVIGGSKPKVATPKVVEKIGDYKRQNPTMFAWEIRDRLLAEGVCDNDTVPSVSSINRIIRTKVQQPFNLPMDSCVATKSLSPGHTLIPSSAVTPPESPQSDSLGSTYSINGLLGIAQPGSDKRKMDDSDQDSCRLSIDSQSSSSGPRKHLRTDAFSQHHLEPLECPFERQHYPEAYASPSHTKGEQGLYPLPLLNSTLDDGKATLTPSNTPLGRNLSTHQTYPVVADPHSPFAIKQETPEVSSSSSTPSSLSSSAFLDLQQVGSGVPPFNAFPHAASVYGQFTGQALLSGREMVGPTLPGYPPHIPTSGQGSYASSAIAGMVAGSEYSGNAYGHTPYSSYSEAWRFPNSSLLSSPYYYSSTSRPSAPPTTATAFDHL
# Bifunctional protein GlmU, sequence (P9WMN3 whole entry): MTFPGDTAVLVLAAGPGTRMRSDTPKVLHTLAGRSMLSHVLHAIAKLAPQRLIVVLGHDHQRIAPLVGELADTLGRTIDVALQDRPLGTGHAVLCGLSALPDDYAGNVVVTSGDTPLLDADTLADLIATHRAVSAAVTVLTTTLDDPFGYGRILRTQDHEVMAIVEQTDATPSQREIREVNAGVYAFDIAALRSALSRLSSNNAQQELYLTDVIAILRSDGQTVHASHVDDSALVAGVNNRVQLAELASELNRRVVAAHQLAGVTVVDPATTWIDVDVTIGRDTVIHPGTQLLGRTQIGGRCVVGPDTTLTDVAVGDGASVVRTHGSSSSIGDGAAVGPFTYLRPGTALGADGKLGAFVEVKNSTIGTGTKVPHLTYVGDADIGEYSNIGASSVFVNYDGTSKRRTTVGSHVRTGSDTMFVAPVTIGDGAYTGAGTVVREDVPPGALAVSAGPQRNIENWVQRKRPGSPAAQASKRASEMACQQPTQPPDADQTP
# E3 ubiquitin-protein ligase Mdm2, sequence (Q00987 whole entry, the tested form may be a part): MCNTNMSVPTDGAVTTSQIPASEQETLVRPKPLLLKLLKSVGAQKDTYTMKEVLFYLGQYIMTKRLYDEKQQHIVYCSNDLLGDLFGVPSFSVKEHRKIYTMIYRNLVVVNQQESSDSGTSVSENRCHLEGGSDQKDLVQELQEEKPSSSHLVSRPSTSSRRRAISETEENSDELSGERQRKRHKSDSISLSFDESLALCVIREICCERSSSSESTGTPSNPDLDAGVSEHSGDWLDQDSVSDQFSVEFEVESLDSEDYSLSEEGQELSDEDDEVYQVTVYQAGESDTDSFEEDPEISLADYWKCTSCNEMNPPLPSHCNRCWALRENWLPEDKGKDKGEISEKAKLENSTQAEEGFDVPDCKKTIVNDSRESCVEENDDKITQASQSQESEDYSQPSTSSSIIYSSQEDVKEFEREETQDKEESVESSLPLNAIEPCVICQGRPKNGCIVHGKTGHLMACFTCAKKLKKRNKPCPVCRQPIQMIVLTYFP
compound,measurement,setting,value
O=C1CCN(Cc2ccccc2)S(=O)(=O)c2ccccc21,EC50,[1],3.06 µM (not active)
same,IC50,[2],39.3 µM (active)
NC(=O)c1c(NC(=O)C2CCCO2)sc2c1CCC2 (stereo not drawn),IC50,Coagulation factor XII,> 50 µM (inactive)
same,IC50,[3],42.5 µM (not active)
Nc1ccccc1NC1CCCCC1,IC50,Nonstructural protein 1,64.8 µM (active)
same,IC50,[4],> 50 µM (not active)
N#C/C(=C/c1ccc(-c2cc(C(=O)O)cc(C(=O)O)c2)o1)c1nc2ccccc2s1,IC50,SUMO-activating enzyme [5],2.81 µM (active)
same,IC50,SUMO-activating enzyme [6],15.9 µM (active)
same,IC50,[7],19.1 µM (active)
O=C(CN1C(=O)c2ccccc2S1(=O)=O)c1ccc2c(c1)OCCO2,AC50,Paired box protein Pax-8,1.64 µM (active)
same,AC50,[8],1.08 µM (active)
same,AC50,[9],0.556 µM (active)
same,AC50,[10],> 52 µM (inactive)
same,IC50,Jurkat,0.17 µM (active)
same,AC50,[11],0.206 µM (active)
same,AC50,[12],< 0.26 µM (active)
same,IC50,[13],> 80 µM (inactive)
same,EC50,[14],0.418 µM (active)
same,AC50,[15],0.339 µM (active)
same,IC50,[16],1.39 µM (active)
same,AC50,[17],0.126 µM (active)
same,AC50,[18],22.9 µM (active)
CC(=O)Oc1oc(-c2ccccc2)nc1/C=N/c1ccccn1,IC50,[19],> 100 µM (not active)
